Experimental data as given in paper PMC11653257, “Organometallic Half-Sandwich Complexes of 8-Hydroxyquinoline-Derived Mannich Bases with Enhanced Solubility: Targeting Multidrug Resistant Cancer” (Inorganic Chemistry, 2024).

Legend:
[1] = n-octanol/water distribution coefficient (shake-flask); type: physicochemical; settings: pH 7.4, […]
Experimental: The exchange of the coligand (H2O/Cl^–) changes the overall charge of the complex, thus affecting lipophilicity. […] The traditional shake-flask method was used to obtain distribution coefficients of the ligands as well as of the complexes in n-octanol/buffered aqueous solution (20 mM phosphate, pH = 7.4) at different chloride ion concentrations (4, 24, and 100 mM) using UV–vis spectrophotometry (Agilent Cary 8454 diode array spectrophotometer, Santa Clara, CA, USA) for the analysis. The compounds were dissolved in buffered aqueous solutions previously saturated with n-octanol. Then the aqueous and n-octanol phases were gently mixed in different volume ratios (using 1:60 for the ligands, 1:1 for the RhCp* and 1:2 for the RuCym complexes ratios of n-octanol to buffered aqueous solution volume) for 4 h, followed by phase separation. Then the UV–vis spectrum of the aqueous or n-octanol phase was recorded and compared to the reference spectrum. Stock solutions were made in the aqueous phase, and distribution coefficients (DpH) were calculated by the following equation: [drawing 3]

[2] = pKa of in situ prepared complexes by UV–vis titration; type: physicochemical; settings: 1:1 system, absence of chloride, I = 0.20 M KNO3
Excerpt: The UV–vis spectra of the complexes prepared in situ were then followed at different pH values in the absence of chloride ions. No spectral changes were observed between pH = 2–6.3 (RuCym) or 7.5 (RhCp*), indicating high solution stability in both cases; however, the changes were significant in the basic pH range (Figure S22). In the case of RuCym complexes, two overlapping processes associated with the deprotonation of the coordinated water molecule and the noncoordinated Npyr/pipH^+ moiety were observed. […] The pKa values determined for these processes are shown in Table 2 and Figure S23 together with the values obtained for complexes formed with the amino acid hybrids HQCl-D-Pro and HQCl-D-hPro (Chart 2) for comparison.[26]
An Agilent Cary 8454 diode array spectrophotometer was utilized to obtain UV–vis spectra in the wavelength range 190–1100 nm. The path length (l) was 1 or 2 cm in most cases (the actual l is always indicated in the legends of the figures). The concentrations of the ligands and complexes were between 36 and 100 μM. The ligands were titrated in the presence of 10 equiv of EDTA. Individual samples contained 0–37 μM HSA, 0–206 μM MIM, 0–759 μM AHA, or 0–733 μM FHA. Spectra were always background and baseline corrected. The computer program HypSpec[64] was used to obtain stability constants.

[3] = pKa of in situ prepared complexes by pH-potentiometry; type: physicochemical; settings: I = 0.20 M KNO3
Excerpt: The results, shown in Table 2, indicate good agreement between the data obtained by the different methods. It should be noted that these processes show overlap in all cases, and therefore, the assignment of the pKa values to the given moieties cannot be made reliably. However, by comparing the spectral changes with those observed for HQ and other simple derivatives,[25] it can be concluded that the lower pKa likely belongs to the deprotonation of the aqua coligand.
The pH-potentiometric measurements were carried out at 25.0 ± 0.1 °C in water in the pH range between 2.0 and 11.5 and at a constant ionic strength of 0.20 M KNO3. The titrations were performed in a carbonate-free KOH solution (0.20 M). The exact concentrations of the HNO3 and KOH solutions were determined by pH-potentiometric titrations. An Orion 710A pH-meter equipped with a Metrohm combined electrode (type 6.0234.100) and a Metrohm 665 Dosimat buret were used for this purpose. […] The average water ionization constant, pKw, was determined as 13.76 ± 0.01, which is in good agreement with the literature data.[67] The initial volume of the samples was 10.0 mL. […] Samples were degassed by bubbling purified argon through them for about 10 min prior to the measurements, and the inert gas was also passed over the solutions during the titrations. The computer program Hyperquad2013[64] was utilized to establish the stoichiometry of the species and to calculate the equilibrium constants.

[4] = H2O/Cl– coligand exchange by UV–vis titration with chloride ions; type: physicochemical
Experimental: When the isolated complexes (1–4) are dissolved in water, their chlorido coligand can be replaced by water, or vice versa in the aqua complexes [M(arene)(HL)(H2O)]^2+, the H2O → Cl^– exchange process can take place in the presence of chloride ions. The chloride ion affinity of the complexes was also investigated by UV–vis spectrophotometry. RhCp* and RuCym complexes were titrated with chloride ions at pH 7.4 and 6.0, respectively. For this experiment, pH values were chosen at which the formation of the mixed hydroxido species is negligible. A representative spectrum series for complex (4) is shown in Figure S27, and the calculated conditional exchange constants (logK’ (H2O/Cl^–)) are given in Table 2 and in Figure S23. […] The complexes of the amino acid hybrids HQCl-D-Pro and HQCl-D-hPro have lower logK’ (H2O/Cl^–) constants most likely due to the repulsive effect of the nearby COO^– group.[26]

[5] = tested on: Escherichia coli (ATCC 25922); experiment: Antibacterial MIC, E. coli; type: cell-based; settings: Mueller Hinton Broth, 37 °C, 18 h
Experimental: (§1) Escherichia coli (ATCC 25922) was used as Gram-negative strain and Staphylococcus aureus (ATCC 25923, methicillin-resistant (MRSA) ATCC 43300) strains were applied as Gram-positive bacterial cultures in the experiments. MIC values of the compounds were determined in 96-well plates based on the Clinical and Laboratory Standard Institute guidelines (CLSI guidelines).[76] The stock solutions of the compounds (same as those used for cytotoxicity experiments) were diluted in 100 μL of Mueller Hinton Broth. Then, 10^–4 dilution of an overnight bacterial culture in 100 μL of medium was added to each well, with the exception of the medium control wells.

[6] = tested on: Staphylococcus aureus (ATCC 25923); experiment: Antibacterial MIC, S. aureus; type: cell-based; settings: Mueller Hinton Broth, 37 °C, 18 h
Experimental: as §1

[7] = tested on: methicillin-resistant S. aureus (MRSA) ATCC 43300; experiment: Antibacterial MIC, MRSA; type: cell-based, Staphylococcus aureus; settings: Mueller Hinton Broth, 37 °C, 18 h
Experimental: as §1

[8] = biological target: human serum albumin (HSA), Trp214 / site I (Homo sapiens, UniProt P02768); experiment: HSA Trp214 fluorescence quenching; settings: 1 μM HSA; λEX = 295 nm (Trp-214); pH 7.4 (PBS’); […]; 24 h
Chain of human serum albumin (HSA), Trp214 / site I (P02768 25-609): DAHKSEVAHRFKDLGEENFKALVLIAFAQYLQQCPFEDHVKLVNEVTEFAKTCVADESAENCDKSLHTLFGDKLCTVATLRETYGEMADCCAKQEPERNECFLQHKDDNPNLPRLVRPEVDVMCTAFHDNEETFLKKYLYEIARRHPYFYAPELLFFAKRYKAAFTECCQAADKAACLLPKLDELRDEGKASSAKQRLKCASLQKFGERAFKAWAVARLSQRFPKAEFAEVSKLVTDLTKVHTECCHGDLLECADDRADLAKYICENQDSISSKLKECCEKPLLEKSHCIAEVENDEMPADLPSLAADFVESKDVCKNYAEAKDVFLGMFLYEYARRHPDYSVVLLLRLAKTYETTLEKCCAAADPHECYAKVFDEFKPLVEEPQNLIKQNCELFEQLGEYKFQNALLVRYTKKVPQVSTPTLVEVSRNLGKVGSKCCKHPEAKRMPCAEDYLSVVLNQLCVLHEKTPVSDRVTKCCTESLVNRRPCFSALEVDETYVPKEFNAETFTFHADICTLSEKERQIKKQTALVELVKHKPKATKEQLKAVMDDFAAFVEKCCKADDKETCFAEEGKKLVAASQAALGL
Experimental: (§4) Next, spectrofluorometric measurements were also performed to gain insight into the binding interactions that may occur in the hydrophobic binding sites of HSA. Tryptophan (Trp214) quenching experiments were conducted for the complexes (1–4) (for complex (3) see Figure S31) and their ligands). […] To monitor the binding at site II, site marker displacement experiments were performed using dansylglycine (DG).
(§5) Fluorescence measurements were carried out on a Fluoromax (Horiba Jobin Yvon, Longjumeau, France) spectrofluorometer using a 1 cm × 1 cm quartz cuvette. […] Excitation wavelengths were 295 nm for Trp-214 quenching and 340 nm for the DG displacement studies. The calculated conditional stability constants for HSA–complex species were obtained using the computer program HypSpec.[64] Calculations always were based on data obtained from at least two independent measurements.

[9] = biological target: human serum albumin (HSA), site II (Homo sapiens, UniProt P02768); experiment: HSA dansylglycine (DG) site marker displacement; settings: cHSA = cDG = 1 μM; λEX = 335 nm (DG); pH 7.4 (PBS’); […]; 24 h
Chain of human serum albumin (HSA), site II (P02768 25-609): as above
Experimental: as §4, §5

MES-SA [10] = experiment: Cytotoxicity in double coculture, MES-SA mCherry; settings: read-out: IC50 MES-SA; double coculture with MES-SA/Dx5; 144 h; without TQ
Experimental: (§6) Therefore, the novel half-sandwich complexes (1–4) and their corresponding ligands were tested against a coculture of MES-SA and MES-SA/Dx5 cells expressing the fluorescent proteins mCherry or eGFP, respectively.[62]
(§7) The tested compounds were dissolved in 50% (v/v) DMSO/PBS’ buffer to prepare 5–10 mM stock solutions, which were diluted in complete culture medium. Constitutive expression of the fluorescent proteins allowed multiplexing in cytotoxicity experiments.[62] […] Serial dilutions of the compounds were added 24 h after seeding. To address the effect of P-gp function, TQ was added at a nontoxic concentration (0.4 μM) 15 min before the test compounds. […] IC50 values and standard deviation were calculated from average pIC50 values from at least 3 independent measurements.

MES-SA/Dx5 [11] = experiment: Cytotoxicity in double coculture, MES-SA/Dx5 eGFP; settings: for SR = IC50 (MES-SA)/IC50 (MES-SA/Dx5): double coculture; for IC50: read-out: IC50 MES-SA/Dx5, double coculture with MES-SA, 144 h
Experimental: as §6, §7

[12] = Ligand displacement with 2,2′-bipyridine, conditional formation constant; type: physicochemical; settings: pH 7.4; bpy competitor; UV–vis
Excerpt: These pKa (H2O) values are lower than those of the complexes formed with the corresponding amino acid hybrids (HQCl-D-Pro, HQCl-D-hPro, Figure S23). Thus, the predominant complex at pH 7.4 is [M(arene)(HL)(H2O)]^2+ in all cases, in which the bidentate ligand coordinates via the (N,O^–) donor set and the pyridinium or pyrrolidinium nitrogens are protonated just like in the isolated complexes (Chart 3). Based on the unchanged spectra (vide supra), these types of complexes show no dissociation at pH = 2, indicating their high stability and hindering the direct determination of the formation constants. Therefore, a ligand displacement experiment was performed using UV–vis spectrophotometry with 2,2′-bipyridine (bpy) as a competitor to determine conditional formation constants at pH = 7.4 (Figure S25). […] Nevertheless, these values indicate a high stability of the complexes in solution, and <1% of dissociation is estimated at 1 μM concentration at pH = 7.4. The ligand displacement measurement could not be applied to the RuCym complexes due to the release of the p-cymene ring followed by the formation of the mixed ligand complex with bpy and oxidation of the metal center (Figure S26), similarly to analogue complexes.[14],[26],[27]

MES-SA [13] = experiment: Cytotoxicity in triple coculture, MES-SA mCherry; type: cell-based, human; settings: Homo sapiens, MES-SA/B1, MES-SA/Dx5, 144 h
Experimental: (§2) Cell lines were purchased from the American Type Culture Collection (ATCC). MES-SA/B1 is a human MDR1-transfected derivative of MES-SA, and MES-SA mCherry, MES-SA/B1 mOrange, and MES-SA/Dx5 eGFP were engineered to stably express the respective fluorescent proteins previously.[62] Cells were kept in culture medium (DMEM) supplemented with 10% fetal bovine serum, 2 mM L-glutamine, 100 units/mL penicillin, and 100 μg/mL streptomycin (Thermo Fisher). One week before use, MES-SA/Dx5 eGFP cells were treated with 0.5 μM doxorubicin to ensure ABCB1/P-gp expression.
(§3) The tested compounds were dissolved in 50% (v/v) DMSO/PBS’ buffer to prepare 5–10 mM stock solutions, which were diluted in complete culture medium. Constitutive expression of the fluorescent proteins allowed multiplexing in cytotoxicity experiments.[62] Cells were mixed before seeding in 384-well plates: in double cocultures, MES-SA mCherry and MES-SA/Dx5 eGFP cells were seeded at 1250–1250 cells/well (in total 2500 cells/well); while in triple cocultures, MES-SA mCherry, MES-SA/Dx5 eGFP and MES-SA/B1 mOrange cells were seeded at 800–800–800 cells/well (in total 2400 cells/well). Serial dilutions of the compounds were added 24 h after seeding. To address the effect of P-gp function, TQ was added at a nontoxic concentration (0.4 μM) 15 min before the test compounds. The intensity of the fluorescent proteins, which is proportional to cell mass, was measured after 144 h of incubation at the respective fluorescent channels (excitation/emission: eGFP: 485 nm/510 nm; mOrange: 545 nm/567 nm; mCherry: 585 nm/610 nm). pIC50 values were calculated by a custom program written by Judit Sessler in C#.[62] IC50 values and standard deviation were calculated from average pIC50 values from at least 3 independent measurements.

MES-SA/Dx5 [14] = experiment: Cytotoxicity in triple coculture, MES-SA/Dx5 eGFP; type: cell-based, human
Experimental: as §2, §3

MES-SA/B1 = experiment: Cytotoxicity in triple coculture, MES-SA/B1 mOrange; type: cell-based, human
Experimental: as §2, §3

Molecule: [RuCym(HQCl-Pyr)Cl]Cl [(2)]
- logD7.4 ([1]; c(Cl–) = 4 mM): –0.12 ± 0.02
- logD7.4 ([1]; c(Cl–) = 24 mM): +0.23 ± 0.03
- logD7.4 ([1]; c(Cl–) = 100 mM): +0.46 ± 0.02
- pKa (H2O) [2]: 8.42 ± 0.03
- pKa (Npyr/pipH+) [2]: 10.32 ± 0.03
- pKa (H2O) [3]: 8.47 ± 0.04
- pKa (Npyr/pipH+) [3]: 10.40 ± 0.03
- logK’ (H2O/Cl–) ([4]; RuCym complexes titrated at pH 6.0): 1.60 ± 0.07
- MIC [5]: > 100 µM
- MIC [6]: > 100 µM
- MIC [7]: > 100 µM
- logK’(quenching) [8]: 5.3 ± 0.2
- logK’(DG) [9]: 5.2 ± 0.1
- IC50 (MES-SA [10]): 8970 nM
- SR = IC50 (MES-SA)/IC50 (MES-SA/Dx5) (MES-SA/Dx5 [11]; + 0.4 μM tariquidar (TQ)): 0.1
- SR = IC50 (MES-SA)/IC50 (MES-SA/Dx5) (MES-SA/Dx5 [11]; without TQ): 3.2
- IC50 (MES-SA/Dx5 [11]; without TQ): 2780 nM

Molecule: Cc1c(C)c(C)[c-](C)c1C.[Cl-].[Cl-].[O-]c1c(C[NH+]2CCCC2)cc(Cl)c2cccnc12.[Rh+3] [(1), [RhCp*(HQCl-Pyr)Cl]Cl]
- logD7.4 ([1]; c(Cl–) = 4 mM): –0.11 ± 0.01
- logD7.4 ([1]; c(Cl–) = 24 mM): +0.12 ± 0.01
- logD7.4 ([1]; c(Cl–) = 100 mM): +0.22 ± 0.01
- pKa (H2O) [3]: 9.35 ± 0.03
- pKa (Npyr/pipH+) [3]: 10.47 ± 0.03
- logK’ (H2O/Cl–) ([4]; RhCp* complexes titrated at pH 7.4): 2.23 ± 0.02
- logK’ [M(arene)L]7.4 conditional formation constant [12]: 12.06 ± 0.02
- MIC [5]: 50 µM
- MIC [6]: 50 µM
- MIC [7]: 50 µM
- logK’(quenching) [8]: 5.1 ± 0.1
- logK’(DG) [9]: 5.0 ± 0.1
- IC50 (MES-SA [10]): 2970 nM
- SR = IC50 (MES-SA)/IC50 (MES-SA/Dx5) (MES-SA/Dx5 [11]; + 0.4 μM tariquidar (TQ)): 1.3
- SR = IC50 (MES-SA)/IC50 (MES-SA/Dx5) (MES-SA/Dx5 [11]; without TQ): 16.0
- IC50 (MES-SA/Dx5 [11]; without TQ): 190 nM

Molecule: COc1cc([C@@H]2c3cc4c(cc3[C@@H](O[C@@H]3O[C@@H]5CO[C@@H](C)O[C@H]5[C@H](O)[C@H]3O)[C@H]3COC(=O)[C@H]23)OCO4)cc(OC)c1O [etoposide]
- IC50 (MES-SA [13]): 260 nM
- SR Dx5 = IC50 (MES-SA)/IC50 (MES-SA/Dx5) (MES-SA/Dx5 [14]): 0.15
- IC50 (MES-SA/Dx5 [14]; Homo sapiens, MES-SA/Dx5, 144 h): 1700 nM
- SR B1 = IC50 (MES-SA)/IC50 (MES-SA/B1) (MES-SA/B1): 0.22
